Drawing on US20090286804A1, “METABOLITES OF 1-[6-(1-ETHYL-1-HYDROXY-PROPYL)-PYRIDIN-3-YL]-3-[2-(4-METHYL-PIPERAZIN-1-YL)-BENZYL]-PYRROLIDIN-2-ONE AS SERATONIN RECEPTOR ANTAGONISTS” (Pfizer Inc, priority 2005, published 2009), this text covers IC50 for 1 molecule.

The target in the assay is serotonin-1 receptors (5-HT1A and/or 5-HT1B). Put plainly: radioligand binding assay for serotonin-1 receptor affinity (IC50). Particulars: receptor subtype not given. The source says: The affinities of the compounds of this invention for the various serotonin-1 receptors can be determined using standard radioligand binding assays as described in the literature. The 5-HT1A affinity can be measured using the procedure of Hoyer et al. (Brain Res., 376, 85 (1986)). The 5-HT1B affinity can be measured using the procedure of Heuring and Peroutka (J. Neurosci., 7, 894 (1987)).
The in vitro activity of the compounds of the present invention at the 5-HT1B binding site can be determined according to the following procedure. Bovine caudate tissue is homogenized and suspended in 20 volumes of a buffer containing 50 mM TRIS•hydrochloride (tris[hydroxymethyl]aminomethane hydrochloride) at a pH of 7.7. The homogenate is then centrifuged at 45,000 G for 10 minutes. The supernatant is then discarded and the resulting pellet resuspended in approximately 20 volumes of 50 mM TRIS•hydrochloride buffer at pH 7.7. […]
The inhibitor, control or vehicle is then incubated according to the following procedure. […] The percent inhibition can be calculated for each dose of the compound. An IC50 value can then be calculated from the percent inhibition values.
The activity of the compounds of the present invention for 5-HT1A binding ability can be determined according to the following procedure. […] The tissue is stored at −70° C. until ready for an experiment. […]

Structures are written as SMILES. pIC50: −log10 of the molar value.

Broadly, the pIC50 is −log10 of the IC50, conventionally taken in molar units.

In the case of `CCC(O)(c1ccc(N2CC[C@@H](Cc3ccccc3N3CCN(C)CC3)C2=O)cn1)C(C)O` (stereo in doubt) [Formula I, 1-[6-(1-ethyl-1,2-dihydroxy-propyl)-pyridin-3-yl]-3-[2-(4-methyl-piperazin-1-yl)-benzyl]-pyrrolidin-2-one], the pIC50 was ≥ 7.00.
